# Laboratory results: patent publication US20250368666A1, “INDAZOLE COMPOUNDS” (TYRA BIOSCIENCES, INC., priority 2022, published 2025)
# What was measured:
# Test in all cases: Kinase binding assay (kinase-tagged T7 phage, affinity beads, qPCR), Kd
# FGFR3 (V555M) = target: T1, FGFR3 (V555M) (Homo sapiens, UniProt P22607, V555M); settings: V555M mutant; read-out: FGFR3 (V555M) (Kd nM)
# T1 construct: made in house; host or cells: E. coli (BL21-derived), T7 phage
# Summary of the method: (§1)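 Competition binding of compounds against kinase-tagged T7 phage captured on immobilised biotinylated ligand beads; bead-bound kinase quantified by qPCR of eluates. 11-point 3-fold dilution, 0.9% DMSO final; Kd from Hill fit with slope fixed at −1.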
# FGFR1 = target: T2, FGFR1 (Homo sapiens, UniProt P11362); settings: read-out: FGFR1 (Kd nM)
# T2 construct: made in house; host or cells: E. coli (BL21-derived), T7 phage
# T2 sequence (P11362 22-822): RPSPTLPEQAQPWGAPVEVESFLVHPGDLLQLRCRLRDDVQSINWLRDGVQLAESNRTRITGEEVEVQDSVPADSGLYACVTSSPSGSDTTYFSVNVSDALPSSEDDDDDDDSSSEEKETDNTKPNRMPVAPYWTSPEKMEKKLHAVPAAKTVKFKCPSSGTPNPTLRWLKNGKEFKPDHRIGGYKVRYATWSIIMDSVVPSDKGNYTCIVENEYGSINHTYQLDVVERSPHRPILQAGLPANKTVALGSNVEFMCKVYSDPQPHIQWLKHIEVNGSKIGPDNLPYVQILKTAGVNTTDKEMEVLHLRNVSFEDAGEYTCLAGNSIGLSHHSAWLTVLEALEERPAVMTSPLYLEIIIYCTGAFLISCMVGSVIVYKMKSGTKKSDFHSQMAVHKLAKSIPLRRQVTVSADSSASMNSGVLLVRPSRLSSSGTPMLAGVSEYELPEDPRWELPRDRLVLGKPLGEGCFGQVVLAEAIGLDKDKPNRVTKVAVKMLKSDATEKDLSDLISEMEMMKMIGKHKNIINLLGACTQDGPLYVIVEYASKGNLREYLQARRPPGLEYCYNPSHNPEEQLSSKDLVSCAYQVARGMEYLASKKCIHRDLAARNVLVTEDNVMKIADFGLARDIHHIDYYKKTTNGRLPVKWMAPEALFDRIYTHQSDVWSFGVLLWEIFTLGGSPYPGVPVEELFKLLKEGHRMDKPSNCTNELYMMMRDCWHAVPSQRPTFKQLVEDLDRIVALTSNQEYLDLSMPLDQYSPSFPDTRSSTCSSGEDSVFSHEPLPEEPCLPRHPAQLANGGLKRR
# Summary of the method: as §1
# FGFR4 = target: T3, FGFR4 (Homo sapiens, UniProt P22455); settings: read-out: FGFR4 (Kd nM)
# T3 construct: made in house; host or cells: E. coli (BL21-derived), T7 phage
# T3 sequence (P22455 22-802): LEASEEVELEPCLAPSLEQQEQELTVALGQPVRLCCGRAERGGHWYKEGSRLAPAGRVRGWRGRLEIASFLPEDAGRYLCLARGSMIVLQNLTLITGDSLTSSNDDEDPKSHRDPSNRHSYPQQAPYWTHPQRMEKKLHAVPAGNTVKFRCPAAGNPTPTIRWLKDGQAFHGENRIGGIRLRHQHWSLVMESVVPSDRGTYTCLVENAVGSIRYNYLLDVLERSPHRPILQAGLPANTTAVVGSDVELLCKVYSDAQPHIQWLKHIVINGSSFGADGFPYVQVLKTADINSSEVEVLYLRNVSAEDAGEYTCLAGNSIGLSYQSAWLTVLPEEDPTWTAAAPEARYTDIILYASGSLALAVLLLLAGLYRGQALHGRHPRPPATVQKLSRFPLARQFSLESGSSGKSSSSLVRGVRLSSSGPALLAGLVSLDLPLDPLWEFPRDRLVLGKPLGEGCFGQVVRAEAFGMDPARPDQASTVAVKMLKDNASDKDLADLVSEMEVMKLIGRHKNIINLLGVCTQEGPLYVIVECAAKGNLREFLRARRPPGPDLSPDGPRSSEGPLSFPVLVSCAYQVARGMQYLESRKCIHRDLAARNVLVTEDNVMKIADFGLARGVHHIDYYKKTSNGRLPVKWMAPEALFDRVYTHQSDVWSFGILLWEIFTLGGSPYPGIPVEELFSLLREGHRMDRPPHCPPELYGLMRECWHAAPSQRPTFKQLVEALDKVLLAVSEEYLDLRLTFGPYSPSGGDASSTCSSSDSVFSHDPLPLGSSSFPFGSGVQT
# Summary of the method: as §1
# FGFR2 = target: T4, FGFR2 (Homo sapiens, UniProt P21802); settings: read-out: FGFR2 (Kd nM)
# T4 construct: made in house; host or cells: E. coli (BL21-derived), T7 phage
# T4 sequence (P21802 22-821): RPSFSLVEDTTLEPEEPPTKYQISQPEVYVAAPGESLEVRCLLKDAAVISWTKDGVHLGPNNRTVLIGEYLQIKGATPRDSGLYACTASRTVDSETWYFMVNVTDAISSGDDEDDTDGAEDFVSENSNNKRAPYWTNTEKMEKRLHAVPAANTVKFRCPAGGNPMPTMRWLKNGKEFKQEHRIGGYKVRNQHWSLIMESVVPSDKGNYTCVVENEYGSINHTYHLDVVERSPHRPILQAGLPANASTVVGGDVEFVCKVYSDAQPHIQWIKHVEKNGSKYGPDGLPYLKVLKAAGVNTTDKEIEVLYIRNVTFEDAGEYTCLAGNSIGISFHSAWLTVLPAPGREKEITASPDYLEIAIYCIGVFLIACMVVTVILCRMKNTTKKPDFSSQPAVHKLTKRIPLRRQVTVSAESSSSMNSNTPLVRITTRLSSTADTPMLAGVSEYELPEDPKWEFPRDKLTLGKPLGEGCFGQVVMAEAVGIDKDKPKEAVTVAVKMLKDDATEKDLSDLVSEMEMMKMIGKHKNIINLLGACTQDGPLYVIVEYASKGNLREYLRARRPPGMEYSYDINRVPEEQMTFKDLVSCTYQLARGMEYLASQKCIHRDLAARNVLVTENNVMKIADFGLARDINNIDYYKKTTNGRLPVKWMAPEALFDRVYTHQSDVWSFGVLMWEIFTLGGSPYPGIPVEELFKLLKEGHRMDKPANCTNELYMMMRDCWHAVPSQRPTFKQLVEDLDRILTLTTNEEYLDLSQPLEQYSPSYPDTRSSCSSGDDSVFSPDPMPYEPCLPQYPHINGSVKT
# Summary of the method: as §1
# FGFR3 = target: T5, FGFR3 (Homo sapiens, UniProt P22607); settings: read-out: FGFR3 (Kd nM)
# T5 construct: made in house; host or cells: E. coli (BL21-derived), T7 phage
# T5 sequence (P22607 23-806): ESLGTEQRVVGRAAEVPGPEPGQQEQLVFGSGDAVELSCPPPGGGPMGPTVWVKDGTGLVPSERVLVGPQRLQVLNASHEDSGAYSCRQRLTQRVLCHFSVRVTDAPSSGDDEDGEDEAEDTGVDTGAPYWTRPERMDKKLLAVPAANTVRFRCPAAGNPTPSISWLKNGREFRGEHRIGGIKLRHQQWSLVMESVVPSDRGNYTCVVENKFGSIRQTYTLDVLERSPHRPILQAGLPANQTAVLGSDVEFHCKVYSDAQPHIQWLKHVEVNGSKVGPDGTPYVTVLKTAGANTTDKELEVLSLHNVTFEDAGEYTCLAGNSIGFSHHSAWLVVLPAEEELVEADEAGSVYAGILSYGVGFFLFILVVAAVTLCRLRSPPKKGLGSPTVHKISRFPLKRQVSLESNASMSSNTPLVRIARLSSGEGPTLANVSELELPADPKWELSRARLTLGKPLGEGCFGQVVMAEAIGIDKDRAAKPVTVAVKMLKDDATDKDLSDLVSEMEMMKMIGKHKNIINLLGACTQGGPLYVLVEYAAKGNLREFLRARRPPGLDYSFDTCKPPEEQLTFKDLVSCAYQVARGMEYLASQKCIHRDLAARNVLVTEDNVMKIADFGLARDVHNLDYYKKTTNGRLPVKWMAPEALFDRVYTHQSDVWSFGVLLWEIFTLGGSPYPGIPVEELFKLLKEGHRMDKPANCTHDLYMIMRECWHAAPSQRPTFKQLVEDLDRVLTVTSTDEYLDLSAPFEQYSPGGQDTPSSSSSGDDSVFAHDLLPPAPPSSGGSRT
# Summary of the method: as §1
# T1 sequence (P22607 23-806 V555M): as the sequence (P22607 23-806) above, with V533M counted along it
Structure (SMILES),Kd (FGFR3 (V555M)),Kd (FGFR1),Kd (FGFR4),Kd (FGFR2),Kd (FGFR3)
"COc1cc2[nH]nc(-c3cnc(N4CC(C)(NCCO)C4)c(F)c3)c2cc1O[C@H](C)c1c(Cl)cncc1Cl [Example 164, (R)-2-((1-(5-(5-(1-(3,5-dichloro-pyridin-4-yl)ethoxy)-6-methoxy-1H-indazol-3-yl)-3-fluoropyridin-2-yl)-3-methylazetidin-3-yl)amino)ethan-1-ol]",1 to 50 nM,1 to 50 nM,1 to 50 nM,1 to 50 nM,1 to 50 nM
C[C@@H](Oc1cc2c(-c3cnc(N4CC(C)(NCCO)C4)c(F)c3)n[nH]c2cc1F)c1c(Cl)cncc1Cl [Example 165],1 to 50 nM,1 to 50 nM,1 to 50 nM,1 to 50 nM,1 to 50 nM
"C[C@@H](Oc1ccc2[nH]nc(-c3cnc(N4CC(C)(N5CCCC5)C4)c(F)c3)c2c1F)c1c(Cl)cncc1Cl [Example 168, (R)-5-(1-(3,5-dichloropyridin-4-yl)ethoxy)-4-fluoro-3-(5-fluoro-6-(3-methyl-3-(pyrrolidin-1-yl)azetidin-1-yl)pyridin-3-yl)-1H-indazole]",1 to 50 nM,50 to 300 nM,50 to 300 nM,50 to 300 nM,1 to 50 nM
"C[C@@H](O)CNC1(C)CN(c2ncc(-c3n[nH]c4ccc(O[C@H](C)c5c(Cl)cncc5Cl)c(F)c34)cc2F)C1 [Example 169, (R)-1-((1-(5-(5-((R)-1-(3,5-dichloropyridin-4-yl)ethoxy)-4-fluoro-1H-indazol-3-yl)-3-fluoropyridin-2-yl)-3-methylazetidin-3-yl)amino)propan-2-ol]",1 to 50 nM,300 to 1000 nM,50 to 300 nM,> 1000 nM,50 to 300 nM
"C[C@@H](Oc1ccc2[nH]nc(-c3cnc(N4CC(C)(CP(C)(C)=O)C4)c(F)c3)c2c1F)c1c(Cl)cncc1Cl [Example 172, (R)-((1-(5-(5-(1-(3,5-dichloro-pyridin-4-yl)ethoxy)-4-fluoro-1H-inda-zol-3-yl)-3-fluoropyridin-2-yl)-3-methylazetidin-3-yl)methyl)dimethyl-phosphine oxide]",1 to 50 nM,300 to 1000 nM,50 to 300 nM,50 to 300 nM,50 to 300 nM
"CC(C)NC1(C)CN(c2ccc(-c3n[nH]c4ccc(O[C@H](C)c5c(Cl)cncc5Cl)c(F)c34)cn2)C1 [Example 173, (R)-1-(5-(5-(1-(3,5-dichloropyridin-4-yl)ethoxy)-4-fluoro-1H-indazol-3-yl)pyridin-2-yl)-N-isopropyl-3-methylazetidin-3-amine]",1 to 50 nM,300 to 1000 nM,300 to 1000 nM,300 to 1000 nM,50 to 300 nM
"C[C@@H](Oc1ccc2[nH]nc(-c3cnc(N4CC(C)(NCC5CC5)C4)c(F)c3)c2c1F)c1c(Cl)cncc1Cl [Example 174, (R)-N-(cyclo-propylmethyl)-1-(5-(5-(1-(3,5-dichloropyridin-4-yl)ethoxy)-4-fluoro-1H-indazol-3-yl)-3-fluoropyridin-2-yl)-3-methylazetidin-3-amine]",50 to 300 nM,300 to 1000 nM,50 to 300 nM,> 1000 nM,50 to 300 nM
"C[C@@H](Oc1ccc2[nH]nc(-c3cnc(N4CC(C)(NCCO)C4)c(F)c3)c2c1F)c1c(Cl)cncc1Cl [Example 175, (R)-2-((1-(5-(5-(1-(3,5-dichloro-pyridin-4-yl)ethoxy)-4-fluoro-1H-indazol-3-yl)-3-fluoropyridin-2-yl)-3-methylazetidin-3-yl)amino)ethan-1-ol]",50 to 300 nM,> 1000 nM,50 to 300 nM,> 1000 nM,50 to 300 nM
"C[C@H](O)CNC1(C)CN(c2ncc(-c3n[nH]c4ccc(O[C@H](C)c5c(Cl)cncc5Cl)c(F)c34)cc2F)C1 [Example 176, (S)-1-((1-(5-(5-((R)-1-(3,5-dichloropyridin-4-yl)ethoxy)-4-fluoro-1H-indazol-3-yl)-3-fluoropyridin-2-yl)-3-methylazetidin-3-yl)amino)propan-2-ol]",50 to 300 nM,300 to 1000 nM,50 to 300 nM,> 1000 nM,50 to 300 nM
"C[C@@H](Oc1ccc2[nH]nc(-c3ccc(N4CC(C)(N5CCCC5)C4)nc3)c2c1F)c1c(Cl)cncc1Cl [Example 177, (R)-5-(1-(3,5-dichloropyridin-4-yl)ethoxy)-4-fluoro-3-(6-(3-methyl-3-(pyrrolidin-1-yl)azetidin-1-yl)pyridin-3-yl)-1H-indazole]",1 to 50 nM,50 to 300 nM,50 to 300 nM,300 to 1000 nM,1 to 50 nM
"C[C@@H](Oc1ccc2[nH]nc(-c3cnc(N4CC(C)(CNCCO)C4)c(F)c3)c2c1)c1c(Cl)cncc1Cl [Example 178, (R)-2-(((1-(5-(5-(1-(3,5-dichloro-pyridin-4-yl)ethoxy)-1H-indazol-3-yl)-3-fluoropyridin-2-yl)-3-methylazetidin-3-yl)methyl)amino) ethanol]",1 to 50 nM,1 to 50 nM,1 to 50 nM,1 to 50 nM,1 to 50 nM
"COc1cc2[nH]nc(-c3cnc(N4CC(C)(CP(C)(C)=O)C4)c(F)c3)c2cc1O[C@H](C)c1c(Cl)cncc1Cl [Example 179, (R)-((1-(5-(5-(1-(3,5-dichloro-pyridin-4-yl)ethoxy)-6-methoxy-1H-indazol-3-yl)-3-fluoropyridin-2-yl)-3-methylazetidin-3-yl)methyl)dimethyl-phosphine oxide]",1 to 50 nM,1 to 50 nM,1 to 50 nM,1 to 50 nM,1 to 50 nM
"COc1cc2[nH]nc(-c3ccc(N4CC(C)(CP(C)(C)=O)C4)nc3)c2cc1O[C@H](C)c1c(Cl)cncc1Cl [Example 180, (R)-((1-(5-(5-(1-(3,5-dichloro-pyridin-4-yl)ethoxy)-6-meth-oxy-1H-inda-zol-3-yl)pyridin-2-yl)-3-methylazetidin-3-yl)methyl)dimethyl-phosphine oxide]",1 to 50 nM,1 to 50 nM,1 to 50 nM,1 to 50 nM,1 to 50 nM

# Next, values leading:
Kd (FGFR3 (V555M)),Kd (FGFR1),Kd (FGFR4),Kd (FGFR2),Kd (FGFR3),Structure (SMILES)
50 to 300 nM,300 to 1000 nM,50 to 300 nM,> 1000 nM,50 to 300 nM,"C[C@@H](Oc1ccc2[nH]nc(-c3cnc(N4CC(C)(N5CCOCC5)C4)c(F)c3)c2c1F)c1c(Cl)cncc1Cl [Example 183, (R)-4-(1-(5-(5-(1-(3,5-dichloro-pyridin-4-yl)ethoxy)-4-fluoro-1H-indazol-3-yl)-3-fluoropyridin-2-yl)-3-methylazetidin-3-yl)morpholine]"
1 to 50 nM,300 to 1000 nM,50 to 300 nM,300 to 1000 nM,1 to 50 nM,"C[C@@H](Oc1ccc2[nH]nc(-c3cnc(N4CC(C)(N5CCC5)C4)c(F)c3)c2c1F)c1c(Cl)cncc1Cl [Example 184, (R)-5-(1-(3,5-dichloropyridin-4-yl)ethoxy)-4-fluoro-3-(5-fluoro-6-(3′-methyl-[1,3′-biazetidin]-1′-yl)pyridin-3-yl)-1H-indazole]"
50 to 300 nM,300 to 1000 nM,50 to 300 nM,300 to 1000 nM,50 to 300 nM,"C[C@@H](Oc1ccc2[nH]nc(-c3cnc(N4CC(C)(CN5CCCC5)C4)c(F)c3)c2c1F)c1c(Cl)cncc1Cl [Example 185, (R)-5-(1-(3,5-dichloropyridin-4-yl)ethoxy)-4-fluoro-3-(5-fluoro-6-(3-methyl-3-(pyrrolidin-1-ylmethyl)azetidin-1-yl)pyridin-3-yl)-1H-indazole]"
1 to 50 nM,1 to 50 nM,1 to 50 nM,1 to 50 nM,1 to 50 nM,"C[C@@H](Oc1cc2c(-c3ccc(N4CC(C)(CN5CCOCC5)C4)nc3)n[nH]c2cc1F)c1c(Cl)cncc1Cl [Example 186, (R)-4-((1-(5-(5-(1-(3,5-dichloro-pyridin-4-yl)ethoxy)-6-fluoro-1H-indazol-3-yl)pyridin-2-yl)-3-methylazetidin-3-yl)methyl)morpho-line]"
50 to 300 nM,> 1000 nM,300 to 1000 nM,300 to 1000 nM,50 to 300 nM,"C[C@@H](Oc1ccc2[nH]nc(-c3ccc(N4CC(C)(CP(C)(C)=O)C4)nc3)c2c1F)c1c(Cl)cncc1Cl [Example 187, (R)-((1-(5-(5-(1-(3,5-dichloro-pyridin-4-yl)ethoxy)-4-fluoro-1H-indazol-3-yl)pyridin-2-yl)-3-methylazetidin-3-yl)methyl)dimethyl-phosphine oxide]"
1 to 50 nM,1 to 50 nM,1 to 50 nM,1 to 50 nM,1 to 50 nM,"C[C@@H](Oc1cc2c(-c3ccc(N4CC(C)(CN5CCCC5)C4)nc3)n[nH]c2cc1F)c1c(Cl)cncc1Cl [Example 188, (R)-5-(1-(3,5-dichloropyridin-4-yl)ethoxy)-6-fluoro-3-(6-(3-methyl-3-(pyrrolidin-1-ylmethyl)azetidin-1-yl)pyridin-3-yl)-1H-indazole]"
1 to 50 nM,1 to 50 nM,1 to 50 nM,1 to 50 nM,1 to 50 nM,"CC(C)NCC1(C)CN(c2ccc(-c3n[nH]c4cc(F)c(O[C@H](C)c5c(Cl)cncc5Cl)cc34)cn2)C1 [Example 189, (R)-N-((1-(5-(5-(1-(3,5-dichloro-pyridin-4-yl)ethoxy)-6-fluoro-1H-indazol-3-yl)pyridin-2-yl)-3-methylazetidin-3-yl)methyl)propan-2-amine]"
1 to 50 nM,300 to 1000 nM,300 to 1000 nM,300 to 1000 nM,1 to 50 nM,"CC(C)NCC1(C)CN(c2ccc(-c3n[nH]c4ccc(O[C@H](C)c5c(Cl)cncc5Cl)c(F)c34)cn2)C1 [Example 190, (R)-N-((1-(5-(5-(1-(3,5-dichloro-pyridin-4-yl)ethoxy)-4-fluoro-1H-indazol-3-yl)pyridin-2-yl)-3-methylazetidin-3-yl)methyl)propan-2-amine]"
